Laboratory results reported in patent US20240376097A1, “BCL-2 Inhibitor” (BeiGene Ltd., priority 2020, published 2024).
Read-outs that look alike come from different tables or passages of the source.

How the values were obtained:
[1] = test system: BCL-2 G101V knock-in cell line H96 (derive from RS4;11); assay: Bcl 2-G101V Knock-In RS4;11 Cell Proliferation Assay; assay type: cell-based; settings: RS4;11 Bcl-2 G101V knock-in clone H96, 48 hrs, CellTiter-GLO, read-out: Cellular proliferation assay (IC50, nM) RS4
Summary of the method: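 CellTiter-Glo luminescence after 48 h, 37 °C compound treatment (10 concentrations, maximum 1 μM or 10 μM) gave mean IC50 values. Cells were 50,000 per well of H96, a BCL2-G101V knock-in single clone derived from RS4;11 by Cas9 editing.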

[2] = biological target: Recombinant human Bcl-2 protein (Homo sapiens (Human), UniProt P10415); assay: Bcl-2 TR-FRET Assay; assay type: binding
Summary of the method: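 Displacement of FITC-labelled Bak peptide (0.5 nM) from 0.05 nM human Bcl-2, detected by TR-FRET with Tb-cryptate anti-6His antibody after 1 h at room temperature. Compounds, 10-point series, preincubated 0.5 h with protein in 20 mM potassium phosphate pH 7.5, 50 mM NaCl. IC50s fitted by four-parameter logistic.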

[3] = biological target: recombinant human Bcl-2-G101V protein (Homo sapiens (Human), UniProt P10415, G101V); assay: Bcl-2-G101V TR-FRET Assay; assay type: binding; settings: Bcl-2 G101V mutant, TR-FRET; read-out: Biochemical assay (IC50, nM) Bcl-2 G101V
Summary of the method: (§1)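 TR-FRET read at excitation 337 nm with emission at 490 nm and 520 nm. Inhibition of Bcl-2-G101V binding to its ligand across increasing compound concentrations was calculated from the 490/520 nm fluorescence ratio, and IC50 values came from four-parameter logistic fits.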

[4] = test system: recombinant human Bcl-2-G101V protein; assay: Bcl-2-G101V TR-FRET Assay; assay type: binding; settings: for Ratio of Bcl-2 G101V/WT: ratio of biochemical IC50 Bcl-2 G101V / Bcl-2 WT; for ratio of IC50 of Bcl-2 G101V/Bcl-2 wt, compared with Example F132b in WO2019210828 and ABT-199 (venetoclax): comparison in words
Summary of the method: as §1

[5] = biological target: recombinant human Bcl-2 D103Y protein (Homo sapiens (Human), UniProt P10415, D103Y); assay: Bcl-2-D103Y Biochemical Assay (TR-FRET); assay type: binding; settings: for IC50: TR-FRET, FITC labeled Bak peptide; for Ratio of Bcl-2 D103Y/Bcl-2 WT: ratio of IC50; for ratio of Bcl-2 D103Y/Bcl-2 wt, compared with F91b in WO2019210828: comparison in words
Summary of the method: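 Compounds titrated against the Bcl-2 D103Y–ligand interaction; inhibition derived from the TR-FRET emission ratio 490 nm/520 nm after 337 nm excitation. Four-parameter logistic fitting gave IC50.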

[6] = test system: RS4;11 (BCL-2 dependent acute lymphoblastic leukemia cell line); assay: RS4;11 Cell Proliferation Assay; assay type: cell-based; settings: read-out: Cellular proliferation assay (IC50, nM) RS4
Summary of the method: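 Viability measured via CellTiter-Glo luminescence after a 48 h, 37 °C exposure to compounds (10 points, highest 1 μM). Seeding was 50,000 RS4;11 cells per well in 10% FBS RPMI-1640; IC50 given as mean.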

[7] = Bcl-2 wild type, TR-FRET, read-out: Biochemical assay (IC50, nM) Bcl-2 WT
[8] = wild type Bcl-2, unit inferred, read-out: Bcl-2 WT
[9] = Homo sapiens, RS4-11, RS4;11 cells

Compound | IC50 [1] | IC50 [2, 7] | IC50 [2, 8] | IC50 [3] | Ratio of Bcl-2 G101V/WT [4] | IC50 [5] | Ratio of Bcl-2 D103Y/Bcl-2 WT [5] | IC50 ([6]; RS4;11 cells) | IC50 ([1]; Homo sapiens) | ratio of IC50 of Bcl-2 G101V/Bcl-2 wt, compared with Example F132b in WO2019210828 and ABT-199 (venetoclax) [4] | ratio of Bcl-2 D103Y/Bcl-2 wt, compared with F91b in WO2019210828 [5] | IC50 [6, 9]
2-((1H-pyrrolo[2,3-b]pyridin-5-yl) oxy)-N-((4-((((1r,4r)-4-hydroxy-4- methylcyclohexyl)methyl)amino)- 3-nitrophenyl)sulfonyl)-4-(2-((R)- 2-(2-isopropylphenyl)-4-((7- methoxybenzofuran-5-yl)methyl) piperazin-1-yl)-7-azaspiro[3.5] nonan-7-yl)benzamide [Example 280] | 0.43 nM | 0.26 nM | 0.26 nM | 0.56 nM | 2.2 | 0.23 nM | 0.89 | 0.14 nM | – | – | – | –
CC(C)c1ccccc1C1CN(C(C)c2ccccc2)CCN1C1CC2(CCN(c3ccc(C(=O)NS(=O)(=O)c4ccc(NC[C@H]5CC[C@](C)(O)CC5)c([N+](=O)[O-])c4)c(Oc4cnc5[nH]ccc5c4)c3)CC2)C1 (single isomer, unassigned) [Example 24b, 2-((1H-pyrrolo[2,3-b]pyridin-5-yl)oxy)-N-((4-((((1r,4r)-4-hydroxy-4-methylcyclohexyl)methyl)amino)-3-nitrophenyl)sulfonyl)-4-(2-(2-(2-isopropylphenyl)-4-(1-phenylethyl)piperazin-1-yl)-7-azaspiro[3.5]nonan-7-yl)benzamide] | – | 0.24 nM | 0.24 nM | 1.1 nM | 4.6 | 0.56 nM | 2.3 | 0.75 nM | 6.49 nM | much lower | significantly lower | –
CC(C)c1ccccc1[C@@H]1CN(Cc2ccc(F)cc2)CCN1C1CC2(CCN(c3ccc(C(=O)NS(=O)(=O)c4ccc(NC[C@H]5CC[C@](C)(O)CC5)c([N+](=O)[O-])c4)c(Oc4cnc5[nH]ccc5c4)c3)CC2)C1 (single isomer, unassigned) [Example 28a, 2-((1H-pyrrolo[2,3-b]pyridin-5-yl)oxy)-4-(2-((R or S)-4-(4-fluorobenzyl)-2-(2-isopropylphenyl)piperazin-1-yl)-7-azaspiro[3.5]nonan-7-yl)-N-((4-((((1r,4r)-4-hydroxy-4-methylcyclohexyl)methyl)amino)-3-nitrophenyl)sulfonyl)benzamide] | – | 0.098 nM | 0.098 nM | 0.33 nM | 3.3 | 0.2 nM | 2.1 | – | 1.23 nM | – | – | 0.21 nM
CC(C)c1ccccc1[C@@H]1CN(Cc2ccc(Cl)cc2)CCN1C1CC2(CCN(c3ccc(C(=O)NS(=O)(=O)c4ccc(NC[C@H]5CC[C@](C)(O)CC5)c([N+](=O)[O-])c4)c(Oc4cnc5[nH]ccc5c4)c3)CC2)C1 (single isomer, unassigned) [Example 29a, 2-((1H-pyrrolo[2,3-b]pyridin-5-yl)oxy)-4-(2-((R or S)-4-(4-chlorobenzyl)-2-(2-isopropylphenyl)piperazin-1-yl)-7-azaspiro[3.5]nonan-7-yl)-N-((4-((((1r,4r)-4-hydroxy-4-methylcyclohexyl)methyl)amino)-3-nitrophenyl)sulfonyl)benzamide] | – | 0.2 nM | 0.2 nM | 0.72 nM | 3.5 | 0.38 nM | 1.9 | – | 1.42 nM | – | – | 0.22 nM
COc1ccc(CN2CCN(C3CC4(CCN(c5ccc(C(=O)NS(=O)(=O)c6ccc(NC[C@H]7CC[C@](C)(O)CC7)c([N+](=O)[O-])c6)c(Oc6cnc7[nH]ccc7c6)c5)CC4)C3)[C@H](c3ccccc3C(C)C)C2)c(OC)c1 (single isomer, unassigned) [Example 48a, 2-((1H-pyrrolo[2,3-b]pyridin-5-yl)oxy)-4-(2-((R or S)-4-(2,4-dimethoxybenzyl)-2-(2-isopropylphenyl)piperazin-1-yl)-7-azaspiro[3.5]nonan-7-yl)-N-((4-((((1r,4r)-4-hydroxy-4-methylcyclohexyl)methyl)amino)-3-nitrophenyl)sulfonyl)benzamide] | – | 0.045 nM | 0.045 nM | 0.21 nM | 4.6 | 0.1 nM | 2.3 | – | 0.81 nM | – | – | 0.16 nM
COc1ccc(CN2CCN(C3CC4(CCN(c5ccc(C(=O)NS(=O)(=O)c6ccc(NC[C@@H]7CN(C8COC8)CCO7)c([N+](=O)[O-])c6)c(Oc6cnc7[nH]ccc7c6)c5)CC4)C3)[C@@H](c3ccccc3C(C)C)C2)cc1 (single isomer, unassigned) [Example 84, 2-((1H-pyrrolo[2,3-b]pyridin-5-yl)oxy)-4-(2-((R or S)-2-(2-isopropylphenyl)-4-(4-methoxybenzyl)piperazin-1-yl)-7-azaspiro[3.5]nonan-7-yl)-N-((3-nitro-4-((((R)-4-(oxetan-3-yl)morpholin-2-yl)methyl)amino)phenyl)sulfonyl)benzamide] | – | 0.028 nM | 0.028 nM | 0.15 nM | 5.2 | 0.049 nM | 1.8 | – | 0.6 nM | much lower | significantly lower | 0.206 nM
COc1cc(CN2CCN(C3CC4(C3)CN(c3ccc(C(=O)NS(=O)(=O)c5ccc(NC[C@H]6CC[C@](C)(O)CC6)c([N+](=O)[O-])c5)c(Oc5cnc6[nH]cc(F)c6c5)c3)C4)[C@H](c3ccccc3C(C)C)C2)cc2c1OCCC2(F)F [Example 354, 4-(6-((R)-4-((4,4-difluoro-8-methoxychroman-6-yl)methyl)-2-(2-isopropylphenyl)piperazin-1-yl)-2-azaspiro[3.3]heptan-2-yl)-2-((3-fluoro-1H-pyrrolo[2,3-b]pyridin-5-yl)oxy)-N-((4-((((1r,4r)-4-hydroxy-4-methylcyclohexyl)methyl)amino)-3-nitrophenyl)sulfonyl)benzamide] | – | 0.9 nM | – | 1.9 nM | 2.2 | – | – | – | 3 nM | – | – | 0.14 nM
COc1ccc(CN2CCN(C3CC4(C3)CN(c3ccc(C(=O)NS(=O)(=O)c5ccc(NCC67CC8CC(C6)C(OC)C(C8)C7)c([N+](=O)[O-])c5)c(Oc5cnc6[nH]cc(F)c6c5)c3)C4)[C@H](c3ccccc3C(C)C)C2)cc1 (stereo partly drawn) [Example 356, 2-((3-fluoro-1H-pyrrolo[2,3-b]pyridin-5-yl)oxy)-4-(6-((R)-2-(2-isopropylphenyl)-4-(4-methoxybenzyl)piperazin-1-yl)-2-azaspiro[3.3]heptan-2-yl)-N-((4-((((1S,3R,7S)-4-methoxyadamantan-1-yl)methyl)amino)-3-nitrophenyl)sulfonyl) benzamide] | – | 1.5 nM | – | 4.2 nM | 2.9 | – | – | – | 1.7 nM | – | – | 0.31 nM
CC(C)c1ccccc1[C@@H]1CN(Cc2ccc(N3CCOCC3)cc2)CCN1C1CC2(C1)CN(c1ccc(C(=O)NS(=O)(=O)c3ccc(NC[C@H]4CC[C@](C)(O)CC4)c([N+](=O)[O-])c3)c(Oc3cnc4[nH]cc(F)c4c3)c1)C2 [Example 368] | – | 0.064 nM | – | 0.29 nM | 4.5 | – | – | – | 0.24 nM | – | – | 0.096 nM
